We go through one substance from paper PMC9410094 (Marine Drugs, 2022).

In assay [1] the test system is P. aeruginosa PAO1 mature biofilms. As to the kind of experiment: Effect on mature biofilms, viability by MTT. The settings on record: P. aeruginosa PAO1 pre-formed biofilm, 16 µM, 2-h exposure.
Method: Biofilm viability was measured by tetrazolium salt reduction (right panel). Values are presented as means ± the standard deviation (SD) of three independent experiments.
The effect of peptides on pre-formed biofilms was evaluated as follows. Biofilms were grown on a 96-well plate at 32 °C for 24 h and stirred at 120 rpm to ensure biofilm formation primarily on the wall of the wells. […] Bacterial survival in the biofilms after 2-h exposure was evaluated via a MTT assay after incubation with a tested peptide. Then, wells were rinsed with sterile water, treated with an MTT solution (Sigma, Kawasaki, Kanagawa, Japan) in PBS, and incubated for 4 h at 37 °C. Next, the medium was removed. The resulting formazan crystals were dissolved in a mixture of EtOH and DMSO (1:1) for 10 min. The optical density of the solution was measured at 570 nm. Bacterial survival was calculated as percent relative to samples without antimicrobial agent. All data were obtained from at least three independent experiments in 3 repetitions.
The subject of another assay is P. aeruginosa PAO1. Briefly: Inhibition of biofilm formation, crystal violet. In kind it is cell-based. The note with it: 24 h, LB, 32 °C. The source says:
Such an adaptive and survival mechanism is mediated by biofilms, which constitutes the community of sessile bacteria embedded within the self-produced extracellular polymeric substance (EPS) that defends them from chemical, biological, and physical stress; it also […] foreign invaders. Besides the fact that EPS decreases concentration of antibiotics, bacteria inside biofilm are characterized by a reduced rate of cell divisions, an increased expression of stress response genes, an occurrence of persistent cells, and exchange of resistance genes leading to a broader spread of tolerant biofilm-growing bacteria. For the treatment of biofilm-associated infections a high concentration of antibiotics is required that also increases toxicity toward human cells. Antimicrobial peptides are able to act on certain stages of biofilm formation and various molecular targets and are considered as promising candidates for the development of new antibiofilm agents. […] Bacterial biomass amount was evaluated using the standard crystal violet assay over a 24 h incubation period with each drug. […]
Masses of biofilms were evaluated by dying with 0.1% CV. […]
The ability of peptides to influence the formation of biofilms was evaluated by the method of two-fold serial dilutions in a liquid nutrient medium. […] Further, the extracts were transferred to a new plate and absorption was measured at 570 nm. […]

Another assay relates to E. coli 3421/E19. Briefly: Neutropenic mice peritonitis model. In kind it is in vivo, BALB/c mice. The note with it: neutropenic BALB/c mice, CFU 5 h after treatment. How it is done: Immune-deficient mice were inoculated intraperitoneally (i.p.) with bacterial suspension. Antimicrobial agent was administered 1 h post-infection, and colony counts in blood and peritoneal fluid (PF) were determined 5 h later.
(A) The mice peritonitis model. […] Horizontal bars indicate means ± SD.
Food and water were provided ad libitum.
CFU counts were determined from blood and peritoneal fluid (PF) 5 h after treatment. The mice were euthanized by CO2 asphyxiation and blood was collected by axillary cut down. A total of 2 mL sterile saline was injected i.p. and the abdomen gently massaged before it was opened, fluid sampled with a pipette, serially diluted and placed on Endo agar supplemented with 20 µg/mL of tetracycline for CFU identification.

In another assay the test system is E. coli MDR Cl 1057. As to the kind of experiment: Resistance induction by serial passages. In kind it is cell-based. The settings on record: E. coli MDR Cl 1057, 0.9% NaCl-enriched Mueller–Hinton medium.

Method for E. coli MDR Cl 1057: One of them involves a series passage with suspension of a test strain and liquid medium containing an antibacterial agent at concentrations near the MIC, which progressively increases during the experiment until resistant mutants are enriched. Bacteria that grew at the highest concentration of drug are used in the final step of the test that determines the final MIC value [18].
The ability of peptides to induce bacterial resistance was assessed by the method of two-fold serial dilutions; this test was repeated every day. […] Next, on the second day, 2 μL of the bacterial suspension was taken from the well containing the sub-inhibitory concentration of the drug as close as possible to the MIC and diluted with 1 mL of the same media.

As for polymyxin B [reference compound], the “Residual viability of bacteria in mature biofilm” value in assay [1] was “about 20%”. For the same substance, the “Inhibition of biofilm formation (in words)” value in the assay with P. aeruginosa PAO1 is listed as “modest inhibition of biofilm”. In the assay with E. coli 3421/E19 (n = 5, i.p. infection, single i.v. dose 1 h post-infection (AMPs 10 mg/kg, polymyxin B 5 mg/kg)), the “Bacterial burden in mice blood (in words)” value is on record as “complete reduction”. In the assay on E. coli 3421/E19 (n = 5, single i.v. dose (AMPs 10 mg/kg, polymyxin B 5 mg/kg)), the “Reduction of the CFU level in peritoneal fluid (PF)” value was ~ 5 log. For the same substance, the “Initial MIC in resistance induction experiment” value in the assay with E. coli MDR Cl 1057 amounted to 0.125 µM.
